Type in all cases: in vivo
The subject of one assay is Plutella xylostella. Nature of the assay: Diamond back moth (Plutella xylostella) stomach poison leaf dip test. The settings on record: for activity in [%]: 10 ppm, scale 0% no biological activity to 100% total control. As for the experimental part: The test solution is prepared at the day of use.
Leaves of Chinese cabbage are dipped in test solution and air-dried. Treated leaves are placed in petri dished lined with moist filter paper. Mortality is recorded 24, 72, and 120 hours after treatment.
The biological tests were conducted as described above.

For a further assay, the system named is Myzus persicae. Kind of assay: Green peach aphid (Myzus persicae) artificial diet test. The settings on record: 72 h, 2500 ppm, adult aphids on treated artificial diet, 3 days, read-out: mortality in comparison with untreated controls. The text has this:
For evaluating control of green peach aphid (Myzus persicae) the test unit consisted of 96-well-microtiter plates containing liquid artificial diet under an artificial membrane.
The compounds were formulated using a solution containing 75% v/v water and 25% v/v DMSO. Different concentrations of formulated compounds were pipetted into the aphid diet, using a custom built pipetter, at two replications.
After application, 5-8 adult aphids were placed on the artificial membrane inside the microtiter plate wells. The aphids were then allowed to suck on the treated aphid diet and incubated at about 23±1° C. and about 50±5% relative humidity for 3 days. Aphid mortality and fecundity was then visually assessed.

The subject of the next assay is Anthonomus grandis. Kind of assay: Boll weevil (Anthonomus grandis) diet/egg test. To be noted: 120 h, 2500 ppm, egg and larval mortality, 5 days, read-out: mortality in comparison with untreated controls. As for the experimental part:
For evaluating control of boll weevil (Anthonomus grandis) the test unit consisted of 24-well-microtiter plates containing an insect diet and 20-30 A. grandis eggs.
The compounds were formulated using a solution containing 75% v/v water and 25% v/v DMSO. Different concentrations of formulated compounds were sprayed onto the insect diet at 20 μl, using a custom built micro atomizer, at two replications.
After application, microtiter plates were incubated at about 23±1° C. and about 50±5% relative humidity for 5 days. Egg and larval mortality was then visually assessed.

For the next assay, the system named is Heliothis virescens. Kind of assay: Tobacco budworm (Heliothis virescens) diet/egg test. The settings on record: for mortality at 2500 ppm: Heliothis virescens, 120 h, egg and larval mortality, 5 days, read-out: mortality in comparison with untreated controls. On the procedure: For evaluating control of tobacco budworm (Heliothis virescens) the test unit consisted of 96-well-microtiter plates containing an insect diet and 15-25 H. virescens eggs.
The compounds were formulated using a solution containing 75% v/v water and 25% v/v DMSO. Different concentrations of formulated compounds were sprayed onto the insect diet at 10 μl, using a custom built micro atomizer, at two replications.
(§1) After application, microtiter plates were incubated at about 28±1° C. and about 80±5% relative humidity for 5 days. Egg and larval mortality was then visually assessed.
The biological activity shown tables under CB.1 and CB.2 was evaluated on scale range from 0% as showing no biological activity to 100% as having total control. The biological tests were conducted as described above.

In a further assay the test system is Ceratitis capitata. Kind of assay: Mediterranean fruitfly (Ceratitis capitata) diet/egg test. To be noted: 120 h, 2500 ppm, egg and larval mortality, 5 days, read-out: mortality in comparison with untreated controls. On the procedure: For evaluating control of Mediterranean fruitfly (Ceratitis capitata) the test unit consisted of microtiter plates containing an insect diet and 50-80 C. capitata eggs.
The compounds were formulated using a solution containing 75% v/v water and 25% v/v DMSO. Different concentrations of formulated compounds were sprayed onto the insect diet at 5 nl, using a custom built micro atomizer, at two replications.
as §1

Another assay has as its system Aedes aegypti. Kind of assay: Aedes aegypti neonate larvae motility assay. The settings on record: larval motility, dose response. As for the experimental part:
Compounds formulated in 100% DMSO are tested in microtiter plates containing 180 ul 1× Luria Broth media and 10 neonate A. aegypti larvae. The efficacy of a compound is determined based on the motility of the larvae as compared to average motility of control wells containing DMSO only. A dose response assay is conducted with compounds with >80% reduction in motility in the primary assay to determine an EC50 value. Selected compounds are advanced to insecticide secondary assays.

Another assay concerns Megoura viciae. Kind of assay: Vetch aphid (Megoura viciae) leaf disk test. To be noted: foliar, 120 h, 2500 ppm, adult aphids on sprayed broad bean leaf disks, 5 days, read-out: mortality in comparison with untreated controls. On the procedure:
For evaluating control of vetch aphid (Megoura viciae) through contact or systemic means the test unit consisted of 24-well-microtiter plates containing broad bean leaf disks.
The compounds were formulated using a solution containing 75% v/v water and 25% v/v DMSO. Different concentrations of formulated compounds were sprayed onto the leaf disks at 2.5 μl, using a custom built micro atomizer, at two replications.
After application, the leaf disks were air-dried and 5-8 adult aphids placed on the leaf disks inside the microtiter plate wells. The aphids were then allowed to suck on the treated leaf disks and incubated at about 23±1° C. and about 50±5% relative humidity for 5 days. Aphid mortality and fecundity was then visually assessed.

SMILES strings stand for the structures. Some results are limits rather than exact numbers.

In the case of `CC(C#N)(CCC(F)(F)F)S(=O)(=O)CCC(F)(F)C(F)(F)F` (stereo not drawn) [CE. 2, reference compound], in the assay on Plutella xylostella, the “activity in [%]” value amounted to 0%.
A word on the mortality: it is the percentage killed. By EC50 is commonly meant the midpoint of the concentration-response curve. A low value points to a more potent agent. For `N#CC(CCSC(F)(F)F)S(=O)(=O)CCC(F)(F)C(F)(F)F` (stereo not drawn) [II-1, 2-(3,3,4,4,4-Pentafluoro-butane-1-sulfonyl)-4-trifluoromethylsulfanyl-butyronitrile], the mortality at 500 ppm in the assay with Plutella xylostella (Plutella xylostella, foliar, 500 ppm, dipped Chinese cabbage leaves, stomach poison, read-out: mortality in comparison with untreated controls) is > 90%. Moreover, the mortality at 2500 ppm in the assay with Myzus persicae, in the assay with Anthonomus grandis, with Heliothis virescens, with Ceratitis capitata and with Megoura viciae was > 90% each time. For the same molecule, in the assay with Heliothis virescens (800 ppm, scale 0% no biological activity to 100% total control), the “activity in [%]” value is listed as 100%. In the assay with Aedes aegypti, the EC50 is < 5 µg/mL.
For `CC(C#N)(CCSC(F)(F)F)S(=O)(=O)CCC(F)(F)C(F)(F)F` (stereo not drawn) [II-2, 2-Methyl-2-(3,3,4,4,4-pentafluoro-butane-1-sulfonyl)-4-trifluoromethyl-sulfanyl-butyronitrile], the “activity in [%]” value with Plutella xylostella is reported as 100%.
For `N#CC(CCSC(F)(F)F)SCCC(F)(F)C(F)(F)F` (stereo not drawn) [II-15, 2-(3,3,4,4,4-Pentafluoro-butylsulfanyl)-4-trifluoromethylsulfanyl-butyronitrile], the mortality at 2500 ppm in the assay with Myzus persicae, with Anthonomus grandis, with Heliothis virescens, in the assay with Ceratitis capitata and in the assay with Megoura viciae was > 90% throughout. Further, the EC50 in the assay with Aedes aegypti is < 5 µg/mL.
Consider `CCC(C#N)(CCSC(F)(F)F)S(=O)(=O)CCC(F)(F)C(F)(F)F` (stereo not drawn) [II-17, 2-Ethyl-2-(3,3,4,4,4-pentafluoro-butane-1-sulfonyl)-4-trifluoromethylsulfanyl-butyronitrile], for which the mortality at 2500 ppm in the assay on Myzus persicae, with Anthonomus grandis, in the assay with Heliothis virescens and in the assay with Ceratitis capitata was > 90% each time. In the assay on Aedes aegypti, the half-maximal effective concentration (EC50) is < 5 µg/mL.
